Results published in patent publication US6635665B2, “Remedies or preventives for pulmonary insufficiency containing diaminotrifluoromethylpyridine derivatives” (Ishihara Sangyo Kaisha, Ltd., priority 2000, dated 2003).

Test system: LPS induced rat ARDS model
Assay: Therapeutic effect on lipopolysaccharide (LPS) induced rat ARDS model
Format: in vivo
Text: The therapeutic effect of N-(2-ethylsulfonylamino-5-trifluoromethyl-3-pyridyl)cyclohexanecarboxamide sodium salt hydrate (hereinafter referred to as compound 1) on LPS induced rat ARDS model was examined.
The compound 1 was used as a drug formulation. The formulation composition (content per one vial) was as follows.
To Crj: CD(SD)IGS male rats (7 weeks old) (Charles River Japan Inc.), LPS (derived from Salmonella enteritidis; L6011, Lot. 27H4127, manufactured by Sigma) diluted with a phosphate buffer solution (PBS) was administered by spraying it on the trachea in a dose of 8 mg/kg (0.5 ml/rat) by means of an atomizer (endotracheal liquid atomizing apparatus 1A-1B, manufactured by Penn Century) to induce ARDS. For normal group rats, PBS was similarly sprayed.
A drug formulation of the compound 1 diluted with 5% glucose was subcutaneously administered continuously in a dose of 0.3 mg/kg/hr as calculated as anhydride of the compound 1 by means of an osmotic pump from immediately after the induction to the time of autopsy (24 hours after). To non-treated group rats, 5% glucose used as the solvent was administered similarly.
24 Hours after the administration of LPS, measurement of the body weight and the lung wet weight, biochemical examination of blood and pathological and histopathological examinations were carried out with respect to every surviving rats.
No death was confirmed 24 hours after the LPS administration, and thus various examinations were carried out with respect to every rat. Here, the pathological score was obtained by evaluating each rat in five stages of −(no significant lesion), ±(slight), +(mild), ++(moderate) and +++(marked), and allotting 0, 0.5, 1, 2 and 3 points, respectively, to obtain the average of each group.

[1] = Crj:CD(SD)IGS male rats, LPS 8 mg/kg on the trachea, 0.3 mg/kg/hr x 24 hr subcutaneous by osmotic pump, 24 hours after LPS, score 0-3, non-treated group 2.7, P < 0.01 vs. non-treated group
[2] = Crj:CD(SD)IGS male rats, LPS 8 mg/kg on the trachea, 0.3 mg/kg/hr x 24 hr subcutaneous by osmotic pump, 24 hours after LPS, score 0-3, non-treated group 2.8, P < 0.01 vs. non-treated group

CCS(=O)(=O)Nc1ncc(C(F)(F)F)cc1NC(=O)C1CCCCC1.O.[Na] [Compound 1, N-(2-ethylsulfonylamino-5-trifluoromethyl-3-pyridyl)cyclohexanecarboxamide sodium salt hydrate]
Histopathological findings of alveoli: Collapse of alveolar wall (average of score in each group), Mean [1]: 1.2
Histopathological findings of alveoli: Hemorrhage in alveoli (average of score in each group), Mean [1]: 1.5
Histopathological findings of alveoli: Alveolar edema (average of score in each group), Mean [2]: 1.4
Histopathological findings of alveoli: Fibrin deposit in alveoli (average of score in each group), Mean [2]: 1.5
Autopsy findings of lung: Edema (average of score in each group), Mean (Crj:CD(SD)IGS male rats, LPS 8 mg/kg on the trachea, 0.3 mg/kg/hr x 24 hr subcutaneous by osmotic pump, autopsy 24 hours after LPS, score 0, 0.5, 1, 2, 3 for -, ±, +, ++, +++, non-treated group 0.4): 0.1
Autopsy findings of lung: Hemorrhage (average of score in each group), Mean (Crj:CD(SD)IGS male rats, LPS 8 mg/kg on the trachea, 0.3 mg/kg/hr x 24 hr subcutaneous by osmotic pump, autopsy 24 hours after LPS, score 0-3, non-treated group 1.0): 0.5
Autopsy findings of lung: Congestion (average of score in each group), Mean (Crj:CD(SD)IGS male rats, LPS 8 mg/kg on the trachea, 0.3 mg/kg/hr x 24 hr subcutaneous by osmotic pump, autopsy 24 hours after LPS, score 0-3, non-treated group 2.8, P < 0.01 vs. non-treated group): 2.2
Collapse of the alveolar wall, alveolar edema and hemorrhage, and fibrin deposit in the alveoli (LPS induced rat ARDS model, compound 1 administered group (0.3 mg/kg/hr subcutaneous, 24 hours) compared with non-treated group, result in words): reduced
Inhibition effect against ARDS pathological progress (LPS induced rat ARDS model, compound 1 administered group (0.3 mg/kg/hr subcutaneous, 24 hours), result in words): remarkable inhibition effect
